Key:
[1] = tested on: Platelet aggregation induced by PAF; experiment: Inhibition of platelet aggregation induced by PAF (Born nephelometric technique, platelet-rich plasma); format: cell-based, male New Zealand rabbits; settings: rabbit platelet-rich plasma, platelet count 3x10⁵/mm³; PAF (C₁₈) 15 nM; read-out: IC₅₀
Experimental: Inhibition of platelet aggregation induced by PAF
Platelet-rich plasma (PRP) was prepared by centrifuging the blood at 250xg for 10 min at 4°C and then it was diluted with platelet-poor plasma (PPP) obtained by further centrifuging at 3000xg for 10 min. The platelet count was adjusted to 3x10⁵/mm³. […] The activities of the inhibitors were expressed as the IC₅₀ value, that is to say the concentration of the drug needed to inhibit platelet aggregation by 50%.

PAF-induced hypotension = experiment: Inhibition of the hypotensive effect induced by PAF in normotensive rats; format: in vivo, Male Sprague Dawley rats; settings: i.v. through the femoral vein 3 min before PAF injection (0.5 mcg/kg, i.v.); anaesthetized rats
Experimental: Inhibition of the hypotensive effect induced by PAF in normotensive rats.
Male Sprague Dawley rats (b.w. 180-220 g) anaesthetized with sodium pentobarbital (50 mg/kg, i.p. 1mL/100 g) were used. In order to measure the arterial pressure, a polyethylene catheter was introduced into the carotid artery. The arterial pressure was recorded with the help of a transducer coupled to a R611 Beckman polygraph. The test compounds were administered through the femoral vein 3 min before PAF injection (0.5 mcg/kg, i.v.). Control animals received only the vehicle. […]

[2] = tested on: ear oedema induced by TPA (12-O-tetradecanoylphorbol 13-acetate); experiment: Rodent ear oedema induced by TPA; format: in vivo, Swiss, male mice; settings: topical in acetone 30 min before irritant; 0.01% TPA, 0.002 mg/ear; read at 6 h; mouse ear
Experimental: (§1) Rodent ear oedema induced by application of several irritant agents
(§2) This test was performed according to the method described by Young et al. (Pharmacological Methods in the Control of Inflammation., ed. Chang, J.Y. & Lewis, A.J. pp 215-231. New York: Alan R. Liss, 1989). Groups of 8-10 Swiss, male mice, 6-8 weeks old, were used in the experiments. Animals had free access to food and water. Irritant dermatitis was elicited by painting both faces of the left ear of the mouse with 20 µL (10 µL each face) of the inflammatory agents. Concentrations (w/v) of the irritants were: 10% arachidonic acid and 0.01% TPA (12-O-tetradecanoylphorbol 13-acetate), both dissolved in acetone. Total applied doses were 2 and 0.002 mg/ear, respectively. Treatment was effected by application of a total of 20 µL of the test compound dissolved in acetone to both faces of the left ear of the mouse 30 min before the application of the irritant agent. Control animals received only the vehicle. At 1 h (arachidonic acid) and 6 h (TPA) after administration of the irritant, animals were killed by cervical dislocation. An 8 mm diameter punch biopsy was performed on each ear, the right (untreated) ear being the control for each animal. The swelling induced by the irritant was quantified as the percentage increase in the weight of the left ear biopsy over that of the right ear biopsy. Percentage inhibition of oedema was calculated according to the following formula: [formula] Activity of the inhibitors was expressed as the ID₅₀ value, i.e. the amount of compound by weight of animal (dose) required to inhibit the increase in weight by 50%, with respect to control animals.

[3] = tested on: ear oedema induced by arachidonic acid; experiment: Rodent ear oedema induced by arachidonic acid; format: in vivo, Swiss, male mice; settings: topical in acetone 30 min before irritant; 10% arachidonic acid, 2 mg/ear; read at 1 h; mouse ear
Experimental: as §1
as §2, with “Groups” for “This test was performed according to the method described by Young et al. (Pharmacological Methods in the Control of Inflammation., ed. Chang, J.Y. & Lewis, A.J. pp 215-231. New York: Alan R. Liss, 1989). Groups”, “biopsy.” for “biopsy. Percentage inhibition of oedema was calculated according to the following formula: [formula] Activity of the inhibitors was expressed as the ID₅₀ value, i.e. the amount of compound by weight of animal (dose) required to inhibit the increase in weight by 50%, with respect to control animals.”

Molecule	IC50 [1]	ID₅₀ (PAF-induced hypotension)	ID₅₀ TPA [2]	ID₅₀ Arachidonic acid [3]
5-Bromo-3-[N-(2-ethoxycarbonylamino)ethyl-N-phenyl]carbamoyl-1-propylpyridinium chloride [Compound 2]	0.0042 µM	0.039 mg/kg	–	–
5-Bromo-3-[N-[2-(2-iodoethoxy)carbonylamino]ethyl-N-phenyl]carbamoyl-1-propylpyridinium chloride [Compound 4]	0.016 µM	–	–	–
5-Bromo-3-[N-[2-(2-iodoethoxy)carbonylamino]ethyl-N-phenyl]carbamoyl₋1-propylpyridinium iodide [Compound 3]	0.01 µM	–	0.76 mg/ear	0.3-1 mg/ear
5-Bromo-3-[N-[2-(4-fluorobenzyloxy)carbonylamino]ethyl-N-phenyl]carbamoyl-1-propylpyridinium iodide [Compound 9]	0.0038 µM	0.079 mg/kg	0.3-1 mg/ear	≈1 mg/ear
CCC[n+]1cc(Br)cc(C(=O)N(CCNC(=O)OCC)c2ccccc2)c1.[I-] [Compound 1, 5-Bromo-3-[N-(2₋ethoxycarbonylamino)ethyl-N-phenyl]carbamoyl-1-propylpyridinium iodide]	0.018 µM	0.046 mg/kg	0.31 mg/ear	0.31 mg/ear
CCC[n+]1cc(Br)cc(C(=O)N(CCN2CCOC2=O)c2ccccc2)c1.[I-] [Compound 5, 5-Bromo-3-[N-[2-(2-oxo-1,3-oxazolidin-3-yl)ethyl-N-phenyl]carbamoyl]-1-propylpyridinium iodide]	0.036 µM	0.16 mg/kg	0.68 mg/ear	≧1 mg/ear
CCC[n+]1cc(Br)cc(C(=O)N(CCOC(=O)NCCI)c2ccccc2)c1.[I-] [Compound 7]	0.0021 µM	<0.025 mg/kg	0.20 mg/ear	0.50 mg/ear
CCC[n+]1cc(Br)cc(C(=O)N(CCNC(=O)OCC(F)(F)C(F)(F)F)c2ccccc2)c1.[I-] [Compound 8, 5-Bromo-3-[N-[2-(2,2,3,3,3-pentafluoropropoxy)carbonylamino]ethyl-N-phenyl]carbamoyl-1-propylpyridinium iodide]	0.0042 µM	–	0.3-1 mg/ear	≈1 mg/ear
CCC[n+]1cc(Br)cc(C(=O)N(CCNC(=O)c2ccc(C(F)(F)F)cc2)c2ccccc2)c1.[I-] [Compound 10]	0.0045 µM	–	0.3-1 mg/ear	≈1 mg/ear
CCC[n+]1cc(Br)cc(C(=O)N(CCNC(=O)c2ccc(C(F)(F)F)cc2)c2ccccc2)c1.[Cl-] [Compound 11, 5-Bromo-3-[N-[2-[(4-trifluoromethyl)phenyl]carbonylaminolethyl-N-phenyl]carbamoyl-1-propylpyridinium chloride]	0.023 µM	–	–	–
CCC[n+]1cc(Br)cc(C(=O)N(CCNC(=O)c2ccc(C(F)(F)F)cc2)c2ccccc2)c1.[Cl-] [Compound 11]	–	0.022 mg/kg	–	–
Cl.O=C(Cc1ccc(OCc2ccc3ccccc3n2)cc1)NCCN(C(=O)c1cncc(Br)c1)c1ccccc1 [Compound 13, 5-Bromo-3-[N-[2-[p-(2-quinolylmethoxy)phenyl]acetylamino]ethyl-N-phenyl]carbamoylpyridinium chloride]	0.052 µM	0.0065 mg/kg	>0.1 mg/ear	>0.3 mg/ear
Cl.O=C(NCCN(C(=O)c1cncc(Br)c1)c1ccccc1)c1cccc(OCc2ccc3ccccc3n2)c1 [Compound 15, 5-Bromo-3-[N-[2-[3-(2-quinolylmethoxy)phenyl]carbonylamino]ethyl-N-phenyl]carbamoylpyridinium chloride]	–	–	≦0.1 mg/ear	–
Cl.O=C(NCCN(C(=O)c1cncc(Br)c1)c1ccccc1)c1ccc(OCc2ccc3ccccc3n2)cc1 [Compound 17, 5-Bromo-3-[N-[2-[p-(2-quinolylmethoxy)phenyl]carbonylamino]ethyl-N-phenyl]carbamoylpyridinium chloride]	–	–	<0.1 mg/ear	–

Reference: patent EP0610943A1, “Pyridinium derivatives useful as PAF antagonists” (J. URIACH & CIA. S.A., priority 1993, dated 1994)
